Laboratory results taken from ChEMBL document CHEMBL1909046, “DrugMatrix in vitro pharmacology data”.

Key:
[1] = target: Tyrosine-protein kinase Lck (Homo sapiens, UniProt P06239); assay: DRUGMATRIX: Protein Tyrosine Kinase, LCK enzyme inhibition (substrate: Poly(Glu:Tyr)); type: cell-based, Insect cells; conditions: insect cells; Not Active = under 50% inhibition at 10 µM
[2] = target: Tyrosine-protein kinase Fyn (Homo sapiens, UniProt P06241); assay: biochemical; type: cell-based, Insect cells; conditions: insect cells;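 further: enzymatic inhibition of Fyn kinase activity measured with Poly(Glu:Tyr) as the phosphorylation substrate; in other assays of this panel Not Active means under 50% inhibition at 10 µM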
[3] = target: T1, Muscarinic acetylcholine receptor M4 (Homo sapiens, UniProt P08173); type: cell membranes, CHO-K1, Membrane; conditions: cho-k1; further: in other assays of this panel Not Active means under 50% inhibition at 10 µM
T1 sequence (P08173 whole entry): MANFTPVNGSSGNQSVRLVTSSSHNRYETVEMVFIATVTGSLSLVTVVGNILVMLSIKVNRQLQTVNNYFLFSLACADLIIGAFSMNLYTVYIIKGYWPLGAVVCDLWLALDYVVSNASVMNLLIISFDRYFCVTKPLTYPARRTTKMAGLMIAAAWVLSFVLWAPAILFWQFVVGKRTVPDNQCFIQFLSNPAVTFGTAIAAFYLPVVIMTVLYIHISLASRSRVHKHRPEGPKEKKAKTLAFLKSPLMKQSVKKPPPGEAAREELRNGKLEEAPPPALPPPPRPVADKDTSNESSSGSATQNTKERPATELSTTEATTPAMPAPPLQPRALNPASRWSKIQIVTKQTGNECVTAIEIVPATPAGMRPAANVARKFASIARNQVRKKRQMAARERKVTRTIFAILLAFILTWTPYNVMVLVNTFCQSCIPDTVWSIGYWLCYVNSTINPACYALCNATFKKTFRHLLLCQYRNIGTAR

[4] = target: Kappa-type opioid receptor (Homo sapiens, UniProt P41145); assay: DRUGMATRIX: Opiate kappa (OP2, KOP) radioligand binding (ligand: [3H] Diprenorphine); type: cell membranes, HEK293, Membrane; conditions: hek293; Not Active = under 50% inhibition at 10 µM
[5] = DRUGMATRIX: Phorbol Ester radioligand binding (ligand: [3H] PDBu); type: cell membranes, Mus musculus, ICR, Brain, Membrane; conditions: Not Active = under 50% inhibition at 10 µM
[6] = DRUGMATRIX: Glutamate, Kainate radioligand binding (ligand: [3H] Kainic acid); type: cell membranes, Rattus norvegicus, Wistar, Brain, Membrane; conditions: Not Active = under 50% inhibition at 10 µM

Chain of Tyrosine-protein kinase Fyn (P06241 whole entry): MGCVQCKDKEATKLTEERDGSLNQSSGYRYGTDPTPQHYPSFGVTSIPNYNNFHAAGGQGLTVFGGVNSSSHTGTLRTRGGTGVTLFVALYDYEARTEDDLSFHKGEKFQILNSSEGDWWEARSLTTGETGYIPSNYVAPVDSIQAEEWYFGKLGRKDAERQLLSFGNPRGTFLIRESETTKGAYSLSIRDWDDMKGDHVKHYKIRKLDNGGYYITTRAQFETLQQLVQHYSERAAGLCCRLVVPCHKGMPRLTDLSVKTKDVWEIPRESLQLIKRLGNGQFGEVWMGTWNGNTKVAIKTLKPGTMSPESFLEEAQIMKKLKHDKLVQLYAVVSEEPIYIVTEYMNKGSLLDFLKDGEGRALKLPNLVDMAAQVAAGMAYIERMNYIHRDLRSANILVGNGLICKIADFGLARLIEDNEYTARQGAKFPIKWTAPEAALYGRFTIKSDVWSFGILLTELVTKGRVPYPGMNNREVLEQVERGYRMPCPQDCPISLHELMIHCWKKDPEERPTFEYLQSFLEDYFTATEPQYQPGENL
Chain of Kappa-type opioid receptor (P41145 whole entry): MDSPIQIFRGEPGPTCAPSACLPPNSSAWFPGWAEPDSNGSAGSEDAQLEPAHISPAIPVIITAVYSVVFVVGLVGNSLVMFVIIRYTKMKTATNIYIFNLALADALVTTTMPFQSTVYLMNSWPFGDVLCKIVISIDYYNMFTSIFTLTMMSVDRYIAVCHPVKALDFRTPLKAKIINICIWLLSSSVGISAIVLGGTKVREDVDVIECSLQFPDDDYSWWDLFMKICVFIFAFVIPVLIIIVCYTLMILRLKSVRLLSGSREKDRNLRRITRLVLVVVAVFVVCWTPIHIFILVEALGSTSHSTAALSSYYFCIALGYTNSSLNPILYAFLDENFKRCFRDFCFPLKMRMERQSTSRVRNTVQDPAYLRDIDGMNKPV
Chain of Tyrosine-protein kinase Lck (P06239 whole entry): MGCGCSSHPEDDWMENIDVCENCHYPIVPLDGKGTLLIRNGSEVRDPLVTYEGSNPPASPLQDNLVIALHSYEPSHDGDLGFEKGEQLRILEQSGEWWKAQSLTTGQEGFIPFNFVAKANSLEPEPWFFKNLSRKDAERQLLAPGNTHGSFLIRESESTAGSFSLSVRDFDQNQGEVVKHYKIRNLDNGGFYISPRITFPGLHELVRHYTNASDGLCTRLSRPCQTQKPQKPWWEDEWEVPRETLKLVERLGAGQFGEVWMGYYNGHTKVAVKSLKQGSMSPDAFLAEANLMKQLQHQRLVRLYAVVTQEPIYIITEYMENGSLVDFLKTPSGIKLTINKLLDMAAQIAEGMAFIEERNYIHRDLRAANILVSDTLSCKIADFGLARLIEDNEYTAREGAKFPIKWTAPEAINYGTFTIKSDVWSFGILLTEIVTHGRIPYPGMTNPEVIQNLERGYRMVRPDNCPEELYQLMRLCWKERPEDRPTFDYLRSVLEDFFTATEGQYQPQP

Cc1c(C)c2c(c(C)c1O)CCC(C)(COc1ccc(CC3SC(=O)NC3=O)cc1)O2 (stereo not drawn) [TROGLITAZONE]
Not Active: IC50 [1] | IC50 [2] | IC50 [3] | IC50 [4] | IC50 [5] | Ki [5] | IC50 [6] | Ki [6]

CCCOc1ccccc1-c1nc2nn[nH]c2c(=O)[nH]1 [ZAPRINAST]
Not Active: IC50 [1] | IC50 [2] | IC50 [3] | IC50 [4] | IC50 [5] | Ki [5] | IC50 [6] | Ki [6]

CC[C@]1(O)C[C@H]2CN(CCc3c([nH]c4ccccc34)[C@@](C(=O)OC)(c3cc4c(cc3OC)N(C=O)[C@H]3[C@@](O)(C(=O)OC)[C@H](OC(C)=O)[C@]5(CC)C=CCN6CC[C@]43[C@@H]65)C2)C1 [VINCRISTINE]
Not Active: IC50 [1] | IC50 [2] | IC50 [3] | IC50 [4] | IC50 [5] | Ki [5] | IC50 [6] | Ki [6]

COc1c(C)c2c(c(O)c1C/C=C(\C)CCC(=O)O)C(=O)OC2 [MYCOPHENOLIC ACID]
Not Active: IC50 [1] | IC50 [2] | IC50 [3] | IC50 [4] | IC50 [5] | Ki [5] | IC50 [6] | Ki [6]

CSc1ccc(/C=C2/C(C)=C(CC(=O)O)c3cc(F)ccc32)cc1 [SULINDAC SULFIDE]
Not Active: IC50 [1] | IC50 [2] | IC50 [3] | IC50 [4] | IC50 [5] | Ki [5] | IC50 [6] | Ki [6]

O=NN(CCCl)C(=O)NC1CCCCC1 [LOMUSTINE]
Not Active: IC50 [1] | IC50 [2] | IC50 [3] | IC50 [4] | IC50 [5] | Ki [5] | IC50 [6] | Ki [6]
